Experimental data published in ChEMBL document CHEMBL1133598, “Synthesis, molecular modeling, and pharmacological testing of bis-quinolinium cyclophanes: potent, non-peptidic blockers of the apamin-sensitive Ca(2+)-activated K(+) channel” (J Med Chem, 2000).

How the values were obtained:
[1] = molecular target: Small conductance calcium-activated potassium channel (Rattus norvegicus, UniProt P70604+P70606+P70605); experiment: The blocking of apamin-sensitive [Ca2+]-activated K+ (SKCa) channel was assessed by the compounds ability to inhibit the after-hyperpolarization in cultured rat superior cervical ganglion neurons; format: functional
[2] = molecular target: Small conductance calcium-activated potassium channel (Rattus norvegicus) (UniProt P70604+P70606+P70605); experiment: The ratio of compound concentrations and dequalinium that cause 50% inhibition of the after-hyperpolarization; format: functional

SMILES | IC50 [1] [nM] | EMR [2]
c1cc2cc(c1)C[n+]1ccc(c3ccccc31)NCc1ccc(cc1)CNc1cc[n+](c3ccccc13)C2 | 3 | 0.01
c1ccc2c(c1)c1cc[n+]2Cc2ccc(cc2)Cc2ccc(cc2)C[n+]2ccc(c3ccccc32)NCc2ccc(cc2)Cc2ccc(cc2)CN1 | 260 | 0.31
C1=C\c2ccc(cc2)C[n+]2ccc(c3ccccc32)NCCCCCCCCCCNc2cc[n+](c3ccccc23)Cc2ccc/1cc2 | 150 | 0.29
c1ccc2c(c1)c1cc[n+]2Cc2ccc(cc2)-c2ccc(cc2)C[n+]2ccc(c3ccccc32)NCc2ccc(cc2)-c2ccc(cc2)CN1 | 430 | 0.89
c1ccc2c(c1)c1cc[n+]2Cc2ccc(cc2)-c2ccc(cc2)C[n+]2ccc(c3ccccc32)NCc2ccc(cc2)Cc2ccc(cc2)CN1 | 150 | 0.26
Nc1cc[n+](Cc2ccc(C[n+]3ccc(N)c4ccccc43)cc2)c2ccccc12 | 2800 | 3.7
Nc1cc[n+](Cc2cccc(C[n+]3ccc(N)c4ccccc43)c2)c2ccccc12 | – | 1.32
c1ccc2c(c1)c1cc[n+]2Cc2ccc(cc2)-c2ccc(cc2)C[n+]2ccc(c3ccccc32)NCCCCCCCCCCN1 | 170 | 0.26
Nc1cc[n+](Cc2ccc(-c3ccc(C[n+]4ccc(N)c5ccccc54)cc3)cc2)c2ccccc12 | 380 | 0.4
c1ccc2c(c1)c1cc[n+]2Cc2ccc3c(c2)Cc2cc(ccc2-3)C[n+]2ccc(c3ccccc32)NCCCCCCCCCCN1 | 90 | 0.11
c1ccc2c(c1)c1cc[n+]2Cc2ccc(cc2)CCc2ccc(cc2)C[n+]2ccc(c3ccccc32)NCCCCCCCCCCN1 | 180 | 0.57
Nc1cc[n+](Cc2ccc(/C=C\c3ccc(C[n+]4ccc(N)c5ccccc54)cc3)cc2)c2ccccc12 | 190 | 0.24
c1ccc2c(c1)c1cc[n+]2Cc2ccc(cc2)Cc2ccc(cc2)C[n+]2ccc(c3ccccc32)NCc2ccc(cc2)-c2ccc(cc2)CN1 | 280 | 0.8
C1=C\c2ccc(cc2)C[n+]2ccc(c3ccccc32)NCc2ccc(cc2)Cc2ccc(cc2)CNc2cc[n+](c3ccccc23)Cc2ccc/1cc2 | 250 | 1.1
Nc1cc[n+](Cc2cccc(-c3cccc(C[n+]4ccc(N)c5ccccc54)c3)c2)c2ccccc12 | 290 | 0.55
Nc1cc[n+](Cc2ccc(-c3cccc(-c4ccc(C[n+]5ccc(N)c6ccccc65)cc4)n3)cc2)c2ccccc12 | 360 | 0.59
c1ccc2c(c1)c1cc[n+]2Cc2ccc(cc2)C[n+]2ccc(c3ccccc32)NCc2ccc(cc2)CN1 | 28 | 0.05
Nc1cc[n+](Cc2ccc3c(c2)Cc2cc(C[n+]4ccc(N)c5ccccc54)ccc2-3)c2ccccc12 | 310 | 0.33

The remaining lines, values ahead:

IC50 [1] [nM] | EMR [2] | SMILES
380 | 0.88 | c1cc2nc(c1)-c1ccc(cc1)C[n+]1ccc(c3ccccc31)NCc1ccc(cc1)Cc1ccc(cc1)CNc1cc[n+](c3ccccc13)Cc1ccc-2cc1
110 | 0.28 | c1cc2cc(c1)-c1cccc(c1)C[n+]1ccc(c3ccccc31)NCCCCCCCCCCNc1cc[n+](c3ccccc13)C2
450 | 0.39 | Nc1cc[n+](Cc2ccc(Cc3ccc(C[n+]4ccc(N)c5ccccc54)cc3)cc2)c2ccccc12
130 | 0.22 | c1cc2cc(c1)CNc1cc[n+](c3ccccc13)Cc1cccc(c1)C[n+]1ccc(c3ccccc31)NC2
410 | 0.71 | Nc1cc[n+](Cc2ccc(CCc3ccc(C[n+]4ccc(N)c5ccccc54)cc3)cc2)c2ccccc12
70 | 0.18 | c1cc2cc(c1)CNc1cc[n+](c3ccccc13)Cc1ccc(cc1)C[n+]1ccc(c3ccccc31)NC2
100 | 0.16 | Oc1c2cc(I)cc1C[n+]1ccc(c3ccccc31)NCc1ccc(cc1)CNc1cc[n+](c3ccccc13)C2
25 | 0.019 | COc1c2cccc1C[n+]1ccc(c3ccccc31)NCc1ccc(cc1)CNc1cc[n+](c3ccccc13)C2
650 | 1 | Cc1cc(N)c2ccccc2[n+]1CCCCCCCCCC[n+]1c(C)cc(N)c2ccccc21.[Cl-].[Cl-] [DEQUALINIUM CHLORIDE]
60 | 0.14 | Oc1c2cccc1C[n+]1ccc(c3ccccc31)NCc1ccc(cc1)CNc1cc[n+](c3ccccc13)C2
120 | 0.15 | c1ccc2c(c1)c1cc[n+]2Cc2ccc3c(c2)Cc2cc(ccc2-3)C[n+]2ccc(c3ccccc32)NCc2ccc(cc2)-c2ccc(cc2)CN1
210 | 0.25 | c1ccc2c(c1)c1cc[n+]2CCCCCCCCCC[n+]2ccc(c3ccccc32)NCc2ccc(cc2)-c2ccc(cc2)CN1
80 | 0.16 | c1ccc2c(c1)c1cc[n+]2Cc2ccc(cc2)Cc2ccc(cc2)C[n+]2ccc(c3ccccc32)NCCCCCCCCCCN1 [UCL-1530]
